Patent US10723753B2, “Ras inhibitors and uses thereof” (Dana-Farber Cancer Institute, Inc., priority 2013, dated 2020)

Molecular target: K-Ras G12C (Homo sapiens, UniProt P01116, G12C)
Test: Fluorescence polarization assay of K-Ras G12C binding to Oregon green labelled RBD
Conditions: for EC50: Ras:Raf (RBD) binding, 95% CI given alongside, read-out: EC50 of nucleotide:Ras complex for RBD
Text: Oregon green (OG) fluorescent dye was coupled to this cysteine in RBD using maleimide chemistry resulting in covalent addition of one OG, as verified by chromatography and mass spectrometry.
This allowed the testing of multiple nucleotides for their ability to induce Ras:Raf binding.

Effect on binding of G12C K-Ras to the RBD protein (added at a 1:10 molar ratio to G12C K-Ras prior to the assay)	EC50 (fluorescence polarization) [nM]	Compound	Interaction of ligand-bound K-Ras G12C with RBD (fluorescence polarization, OG-labelled RBD, recombinant K-Ras G12C bound to the named ligand)
appeared to prevent binding	–	CCCC(CCC)COC(=O)[C@H](C)NP(=O)(OCCNC(=O)CCl)OP(=O)(O)OC[C@H]1O[C@@H](n2cnc3c(=O)[nH]c(N)nc32)[C@H](O)[C@@H]1O (stereo partly drawn) [Example 3, (2S)-2-propylpentyl 2-(((((((2R,3S,4R,5R)-5-(2-amino-6-oxo-1H-purin-9(6H)-yl)-3,4-dihydroxytetrahydrofuran-2-yl)methoxy)(hydroxy)phosphoryl)oxy)(2-(2-chloroacetamido)ethoxy)phosphoryl)amino)propanoate]	–
–	26	Nc1nc2c(ncn2[C@@H]2O[C@H](COP(=O)(O)OP(=O)(O)OP(=O)(O)O)[C@@H](O)[C@H]2O)c(=O)[nH]1 [GTP]	higher affinity for RBD than the GDP bound form
–	108	Nc1nc2c(ncn2[C@@H]2O[C@H](COP(=O)(O)OP(=O)(O)O)[C@@H](O)[C@H]2O)c(=O)[nH]1 [GDP]	–
